Laboratory results as given in publication PMC8330735 (Journal of Enzyme Inhibition and Medicinal Chemistry, 2021).

Columns and labels:
[1] = tested on: acetic acid-induced writhing in mice; experiment: Acetic acid induced writhing test; assay type: in vivo; details: 50 mg/kg p.o.; for Number of writhes: 1 h prior acetic acid i.p., within 30 min
Description: The number of writhes, manifested as extension of hind legs, constriction of abdomen, or turning of trunk was recorded within 30 min.

[2] = tested on: NO production in LPS-activated RAW 264.7 macrophages; experiment: NO production in LPS-activated RAW 264.7 macrophages (DAF-FM); assay type: cell-based; details: Mus musculus, RAW264.7; LPS 1 µg/mL activated RAW 264.7
Description: HCA7 colorectal cancer cell line was obtained from Sigma. […] Louis, MO) containing 10% heat-inactivated foetal bovine serum (HI-FBS) (Gibco, USA), 100 μg/mL streptomycin (Invitrogen, USA), and […] penicillin (Invitrogen, USA)[40]. HCA7 and RAW 264.7 cells were cultured in Dulbecco's minimal essential media (DMEM, Invitrogen) containing 10% HI-FBS, sodium pyruvate (1 mM), penicillin ([…]), and streptomycin (100 mg/m)[41]^,[42]. […] Molecular Probes, USA). Briefly, RAW 264.7 cells were cultured in black 96-well plates (200,000 cells/mL, 100 µl/well) for 24 h. […] The fluorescence intensity, which is directly proportional to NO levels, was quantified, as detailed in our previous study. IC50 values were calculated from the dose–response curves.

[3] = tested on: ROS production in LPS-activated RAW 264.7 macrophages; experiment: ROS production in LPS-activated RAW 264.7 macrophages (DCFH-DA); assay type: cell-based; details: LPS 1 µg/mL activated RAW 264.7
Description: HCA7 colorectal cancer cell line was obtained from Sigma. […] Louis, MO) containing 10% heat-inactivated foetal bovine serum (HI-FBS) (Gibco, USA), 100 μg/mL streptomycin (Invitrogen, USA), and […] penicillin (Invitrogen, USA)[40]. HCA7 and RAW 264.7 cells were cultured in Dulbecco's minimal essential media (DMEM, Invitrogen) containing 10% HI-FBS, sodium pyruvate (1 mM), penicillin ([…]), and streptomycin (100 mg/m)[41]^,[42]. […] The cells were cultured, incubated with the different test compounds, and activated with LPS (1 µg/mL) as detailed above. […] IC50 values were calculated from the dose–response curves.

[4] = tested on: HCT116 cells; experiment: MTS cell viability assay HCT116; assay type: cell-based; details: Homo sapiens, HCT-116, 48 h, cell line scarcely expressing COX-2
Description: (§1) Human colorectal cancer cell lines, HCT116 and HT29, and RAW 264.7 macrophages were obtained from ATCC (Manassas, VA). HCA7 colorectal cancer cell line was obtained from Sigma. HT29 and HCT116 cells were cultured in McCoy's 5 A medium (Sigma Aldrich, St. Louis, MO) containing 10% heat-inactivated foetal bovine serum (HI-FBS) (Gibco, USA), 100 μg/mL streptomycin (Invitrogen, USA), and […] penicillin (Invitrogen, USA)[40]. HCA7 and RAW 264.7 cells were cultured in Dulbecco's minimal essential media (DMEM, Invitrogen) containing 10% HI-FBS, sodium pyruvate (1 mM), penicillin ([…]), and streptomycin (100 mg/m)[41]^,[42].
(§2) Cells were cultured in 96‐well plates for 48 h and then treated with serum-free media containing different concentrations of the tested compounds (12.5, 25, 50, 100 and 150 µM). After 48 h., MTS reagent (Promega) was added as directed by the manufacturer, and then, the absorbance was measured at 495 nm. The absorbance is proportional to the number of viable cells. IC50 was calculated from the dose-response curves as described previously[45] using GraphPad Prism 8 software (GraphPad Software, San Diego, CA).

[5] = tested on: HT29 cells; experiment: MTS cell viability assay HT29; assay type: cell-based; details: Homo sapiens, HT-29, 48 h, cell line moderately expressing COX-2
Description: as §1, §2

[6] = tested on: HCA7 cells; experiment: MTS cell viability assay HCA7; assay type: cell-based; details: Homo sapiens, HCA-7, 48 h, cell line highly expressing COX-2
Description: as §1, §2

[7] = molecular target: T1, ovine COX-1 (Ovis aries, UniProt P05979); experiment: In vitro COX-1 inhibitory assay (colorimetric Cayman kit)
T1 sequence (P05979 25-600): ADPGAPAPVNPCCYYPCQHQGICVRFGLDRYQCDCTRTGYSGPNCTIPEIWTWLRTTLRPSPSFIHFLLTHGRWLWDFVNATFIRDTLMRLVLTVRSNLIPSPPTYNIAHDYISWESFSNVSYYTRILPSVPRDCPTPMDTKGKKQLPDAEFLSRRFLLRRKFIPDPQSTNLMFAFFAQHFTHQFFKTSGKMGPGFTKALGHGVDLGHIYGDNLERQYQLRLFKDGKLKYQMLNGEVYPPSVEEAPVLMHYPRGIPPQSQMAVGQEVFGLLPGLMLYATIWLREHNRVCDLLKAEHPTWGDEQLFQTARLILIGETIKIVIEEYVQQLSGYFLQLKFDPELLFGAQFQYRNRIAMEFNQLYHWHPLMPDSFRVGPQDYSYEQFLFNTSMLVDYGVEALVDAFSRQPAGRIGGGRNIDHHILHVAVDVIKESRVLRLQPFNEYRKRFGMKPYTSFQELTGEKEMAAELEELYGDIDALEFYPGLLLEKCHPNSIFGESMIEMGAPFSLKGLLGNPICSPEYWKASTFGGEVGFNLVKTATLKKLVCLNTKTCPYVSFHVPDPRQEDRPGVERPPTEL
Description: (§3) All the newly synthesised compounds were tested for their ability to inhibit COX-1 and COX-2 enzymes using a screening assay method.

[8] = molecular target: T2, human recombinant COX-2 (Homo sapiens, UniProt P35354); experiment: In vitro COX-2 inhibitory assay (colorimetric Cayman kit); details: for Selectivity Index (SI): COX-1 IC50/COX-2 IC50
T2 sequence (P35354 18-604): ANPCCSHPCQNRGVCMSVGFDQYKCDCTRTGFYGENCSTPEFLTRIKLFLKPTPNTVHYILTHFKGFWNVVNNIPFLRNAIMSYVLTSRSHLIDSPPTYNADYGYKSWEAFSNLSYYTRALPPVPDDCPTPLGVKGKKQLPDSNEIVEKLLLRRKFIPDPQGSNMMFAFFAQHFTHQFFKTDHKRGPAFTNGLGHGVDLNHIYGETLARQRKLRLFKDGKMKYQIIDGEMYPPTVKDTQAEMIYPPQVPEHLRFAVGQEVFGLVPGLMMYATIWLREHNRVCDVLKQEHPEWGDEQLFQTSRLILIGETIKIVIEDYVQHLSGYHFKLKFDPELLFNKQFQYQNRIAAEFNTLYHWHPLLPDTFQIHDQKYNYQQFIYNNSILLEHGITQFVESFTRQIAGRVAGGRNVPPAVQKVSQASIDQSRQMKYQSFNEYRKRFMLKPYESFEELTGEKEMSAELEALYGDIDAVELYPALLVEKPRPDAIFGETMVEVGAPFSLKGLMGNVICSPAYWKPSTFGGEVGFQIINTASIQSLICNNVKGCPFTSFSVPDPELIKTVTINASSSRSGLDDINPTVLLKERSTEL
Description: as §3

In the case of `CC(C)Cc1ccc(C(C)C(=O)NN2C(=O)c3ccccc3N(C)C2c2ccc([N+](=O)[O-])cc2)cc1` (centres unmarked) [7c, 2-(4-Isobutylphenyl)-N-(1-methyl-2-(4-nitrophenyl)-4-oxo-1,4-dihydroquinazolin-3(2H)-yl) propenamide], the “Reduction in the pain response (writhes number)” value [1] is reported as 78%, the Number of writhes [1] is reported as 11.33 writhes and the IC50 [2] is reported as 23.4 ± 1.29 µM. For the same compound, the IC50 [3] was 9.23 ± 1.76 µM, the IC50 ([3]; Mus musculus, RAW264.7) was 9.22 µM and the IC50 [4] was > 150 µM. For the same compound, the IC50 [5] was 13.4 ± 0.17 µM, the IC50 [6] was > 150 µM and the melting point was 111 to 116 °C. The IC50 [7] was 14.73 ± 0.13 µM, the IC50 [8] was 0.037 µM and the “Selectivity Index (SI)” value [8] was 398.11.
With `NNC(=O)CSc1nc2ccccc2c(=O)n1NC(=O)Cc1ccccc1` [13b, N-(2-((2-hydrazinyl-2-oxoethyl)thio)-4-oxoquinazolin-3(4H)-yl)-2-phenylacetamide] the Number of writhes [1] was “no writhes”, the IC50 [2] was 9.76 ± 2.14 µM and the IC50 ([3]; Mus musculus, RAW264.7) was 24.4 ± 1.43 µM. For the same compound, the IC50 [4] was > 150 µM, the IC50 [5] was > 150 µM and the IC50 [6] was > 150 µM. The melting point was 210 to 215 °C, the IC50 [7] was 16.92 ± 0.16 µM and the IC50 [8] was 0.045 µM. For the same compound, the “Selectivity Index (SI)” value [8] was 373.77 and the “Selectivity Index (SI)” value ([8]; listed as 13 b) was 373.
